Test results reported in ChEMBL document CHEMBL4138146, “A Schmidt rearrangement-mediated synthesis of novel tetrahydro-benzo[1,4]diazepin-5-ones as potential anticancer and antiprotozoal agents” (Eur J Med Chem, 2017).

How the values were obtained:
Format in all cases: functional
[1] = system: U-251; test: Growth inhibition of human U251 cells incubated for 48 hrs by sulforhodamine B assay; details: U-251, 48 h
[2] = system: Malme-3M; test: Growth inhibition of human MALME-3M cells incubated for 48 hrs by sulforhodamine B assay
[3] = system: SF-268; test: Growth inhibition of human SF268 cells incubated for 48 hrs by sulforhodamine B assay; details: SF-268, 48 h
[4] = system: MDA-MB-435; test: Growth inhibition of human MDA-MB-435 cells incubated for 48 hrs by sulforhodamine B assay; details: MDA-MB-435, 48 h
[5] = system: OVCAR-5; test: Growth inhibition of human OVCAR5 cells incubated for 48 hrs by sulforhodamine B assay; details: OVCAR-5, 48 h
[6] = system: OVCAR-3; test: Growth inhibition of human OVCAR3 cells incubated for 48 hrs by sulforhodamine B assay; details: OVCAR-3, 48 h
[7] = system: DU-145; test: Growth inhibition of human DU145 cells incubated for 48 hrs by sulforhodamine B assay; details: DU-145, 48 h
[8] = system: SF-295; test: Growth inhibition of human SF295 cells incubated for 48 hrs by sulforhodamine B assay; details: SF-295, 48 h
[9] = system: HOP-92; test: Growth inhibition of human HOP92 cells incubated for 48 hrs by sulforhodamine B assay; details: HOP-92, 48 h
[10] = system: MCF7; test: Growth inhibition of human MCF7 cells incubated for 48 hrs by sulforhodamine B assay; details: MCF7, 48 h
[11] = system: NCI-H23; test: Growth inhibition of human NCI-H23 cells incubated for 48 hrs by sulforhodamine B assay; details: NCI-H23, 48 h
[12] = system: SF-539; test: Growth inhibition of human SF539 cells incubated for 48 hrs by sulforhodamine B assay; details: SF-539, 48 h
[13] = system: SK-OV-3; test: Growth inhibition of human SKOV3 cells incubated for 48 hrs by sulforhodamine B assay; details: SK-OV-3, 48 h
[14] = system: HCT-15; test: Growth inhibition of human HCT15 cells incubated for 48 hrs by sulforhodamine B assay; details: HCT-15, 48 h
[15] = system: RXF 393; test: Growth inhibition of human RXF393 cells incubated for 48 hrs by sulforhodamine B assay; details: RXF 393, 48 h
[16] = system: MDA-MB-468; test: Growth inhibition of human MDA-MB-468 cells incubated for 48 hrs by sulforhodamine B assay; details: MDA-MB-468, 48 h
[17] = system: SK-MEL-28; test: Growth inhibition of human SK-MEL-28 cells incubated for 48 hrs by sulforhodamine B assay; details: SK-MEL-28, 48 h
[18] = system: NCI/ADR-RES; test: Growth inhibition of human NCI/ADR-RES cells incubated for 48 hrs by sulforhodamine B assay
[19] = system: HL-60(TB); test: Growth inhibition of human HL-60(TB) cells incubated for 48 hrs by sulforhodamine B assay; details: HL-60, 48 h
[20] = system: SK-MEL-2; test: Growth inhibition of human SK-MEL-2 cells incubated for 48 hrs by sulforhodamine B assay; details: SK-MEL-2, 48 h
[21] = system: IGROV-1; test: Growth inhibition of human IGROV1 cells incubated for 48 hrs by sulforhodamine B assay; details: IGROV-1, 48 h
[22] = system: SW-620; test: Growth inhibition of human SW620 cells incubated for 48 hrs by sulforhodamine B assay; details: SW-620, 48 h
[23] = system: T47D; test: Growth inhibition of human T47D cells incubated for 48 hrs by sulforhodamine B assay
[24] = system: COLO 205; test: Growth inhibition of human COLO205 cells incubated for 48 hrs by sulforhodamine B assay; details: COLO 205, 48 h
[25] = system: SNB-19; test: Growth inhibition of human SNB19 cells incubated for 48 hrs by sulforhodamine B assay; details: SNB-19, 48 h
[26] = system: TK-10; test: Growth inhibition of human TK10 cells incubated for 48 hrs by sulforhodamine B assay; details: TK-10, 48 h
[27] = system: NCI-H322M; test: Growth inhibition of human NCI-H322M cells incubated for 48 hrs by sulforhodamine B assay
[28] = system: NCI-H226; test: Growth inhibition of human NCI-H226 cells incubated for 48 hrs by sulforhodamine B assay; details: NCI-H226, 48 h
[29] = system: PC-3; test: Growth inhibition of human PC3 cells incubated for 48 hrs by sulforhodamine B assay; details: PC-3, 48 h
[30] = system: CCRF-CEM; test: Growth inhibition of human CCRF-CEM cells incubated for 48 hrs by sulforhodamine B assay
[31] = system: SN12C; test: Growth inhibition of human SN12C cells incubated for 48 hrs by sulforhodamine B assay
[32] = system: 786-0; test: Growth inhibition of human 786-0 cells incubated for 48 hrs by sulforhodamine B assay; details: 786-0, 48 h
[33] = system: EKVX; test: Growth inhibition of human EKVX cells incubated for 48 hrs by sulforhodamine B assay
[34] = system: HOP-62; test: Growth inhibition of human HOP62 cells incubated for 48 hrs by sulforhodamine B assay; details: HOP-62, 48 h
[35] = system: SK-MEL-5; test: Growth inhibition of human SK-MEL-5 cells incubated for 48 hrs by sulforhodamine B assay; details: SK-MEL-5, 48 h
[36] = system: NCI-H460; test: Growth inhibition of human NCI-H460 cells incubated for 48 hrs by sulforhodamine B assay; details: NCI-H460, 48 h
[37] = system: MOLT-4; test: Growth inhibition of human MOLT4 cells incubated for 48 hrs by sulforhodamine B assay; details: MOLT-4, 48 h
[38] = read-out: LC50 (the source's name)

**Q.** Which results are given for `CCCCOc1nc2ccccc2cc1C1CNC(=O)c2ccccc2N1` (stereo unspecified)?
**A.** GI50 [1]: 3.03 µM; TGI [1]: 13.7 µM; CC50 [1, 38]: 50.1 µM; GI50 [2]: 3.58 µM; TGI [2]: 27 µM; CC50 [2, 38]: 92 µM; GI50 [3]: 4.14 µM; TGI [3]: > 100 µM; CC50 [3, 38]: > 100 µM; GI50 [4]: 0.34 µM; TGI [4]: 1.33 µM; CC50 [4, 38]: 7.6 µM; GI50 [5]: 6.42 µM; TGI [5]: 41 µM; CC50 [5, 38]: > 100 µM; GI50 [6]: 1.31 µM; TGI [6]: 3.53 µM; CC50 [6, 38]: 9.4 µM; GI50 [7]: 3.16 µM; TGI [7]: 12.9 µM; CC50 [7, 38]: > 100 µM; GI50 [8]: 1.4 µM; TGI [8]: 9.82 µM; CC50 [8, 38]: 52.4 µM; GI50 [9]: 1.92 µM; TGI [9]: 22.6 µM; CC50 [9, 38]: > 100 µM; GI50 [10]: 1.73 µM; TGI [10]: 16.1 µM; CC50 [10, 38]: > 100 µM; GI50 [11]: 5.16 µM; TGI [11]: 36.8 µM; CC50 [11, 38]: > 100 µM; GI50 [12]: 2.29 µM; TGI [12]: 7.47 µM; CC50 [12, 38]: 44.9 µM; GI50 [13]: 2.38 µM; TGI [13]: 9.96 µM; CC50 [13, 38]: > 100 µM; GI50 [14]: 1.92 µM; TGI [14]: 10.8 µM; CC50 [14, 38]: 48.6 µM; GI50 [15]: 2.5 µM; TGI [15]: 12.1 µM; CC50 [15, 38]: 75.4 µM; GI50 [16]: 1.61 µM; TGI [16]: 7.34 µM; CC50 [16, 38]: > 100 µM; GI50 [17]: 5.89 µM; TGI [17]: 27.3 µM; CC50 [17, 38]: 86.1 µM; GI50 [18]: 1.74 µM; TGI [18]: 6.7 µM; CC50 [18, 38]: 97 µM; GI50 [19]: 0.047 µM; LC50 [19]: 65.4 µM; TGI [19]: 0.384 µM; GI50 [20]: 4.79 µM; TGI [20]: 48.5 µM; CC50 [20, 38]: > 100 µM; GI50 [21]: 4.49 µM; TGI [21]: 23.9 µM; CC50 [21, 38]: 98.5 µM; GI50 [22]: 2.19 µM; TGI [22]: 27.1 µM; CC50 [22, 38]: > 100 µM; GI50 [23]: 5.32 µM; TGI [23]: > 100 µM; CC50 [23, 38]: > 100 µM; GI50 [24]: 2.19 µM; TGI [24]: 4.95 µM; CC50 [24, 38]: 23 µM; GI50 [25]: 6.13 µM; TGI [25]: 75.3 µM; CC50 [25, 38]: > 100 µM; GI50 [26]: 4.93 µM; TGI [26]: 21.6 µM; CC50 [26, 38]: 73.8 µM; GI50 [27]: 4.5 µM; TGI [27]: 45.5 µM; CC50 [27, 38]: > 100 µM; GI50 [28]: 3.13 µM; TGI [28]: 14.9 µM; CC50 [28, 38]: > 100 µM; GI50 [29]: 3.06 µM; TGI [29]: 13.4 µM; CC50 [29, 38]: 66.9 µM; GI50 [30]: 2.95 µM; LC50 (concentration killing 50% of cells) [30]: > 100 µM; TGI [30]: 24.9 µM; GI50 [31]: 3.34 µM; TGI [31]: 18.2 µM; CC50 [31, 38]: 90.6 µM; GI50 [32]: 2.84 µM; TGI [32]: 10.4 µM; CC50 [32, 38]: 4.65 µM; GI50 [33]: 4.76 µM; TGI [33]: 82.8 µM; CC50 [33, 38]: > 100 µM; GI50 [34]: 2.99 µM; LC50 [34]: 76.7 µM; TGI [34]: 17.4 µM; GI50 [35]: 2.34 µM; TGI [35]: 20 µM; CC50 [35, 38]: > 100 µM; GI50 [36]: 3.11 µM; LC50 (concentration killing 50% of cells) [36]: 51.1 µM; TGI [36]: 11.6 µM; GI50 [37]: 3.05 µM; TGI [37]: 13.6 µM; CC50 [37, 38]: > 100 µM
